Results taken from paper PMC7044277 (Nature Communications, 2020).
Several values for one entry are separate records, joined by “and”; a condition that tells them apart may be missing. Equal values may be shown once.

Experiments:
Assay type in all cases: cell-based
320 non-olfactory GPCRs [1] = target: T1, 320 non-olfactory GPCRs (Homo sapiens, UniProt P32245); conditions: receptor MC4R; replicate values, Fig_4g
T1 construct: expressed in transfected cells; host or cells: HTLA cells

320 non-olfactory GPCRs [2] = target: 320 non-olfactory GPCRs (Homo sapiens, UniProt P41145); conditions: receptor OPRK1; replicate values, Fig_4g
320 non-olfactory GPCRs [3] = target: T2, 320 non-olfactory GPCRs (Homo sapiens, UniProt P50391); conditions: receptor NPY4R; replicate values, Fig_4g
T2 construct: expressed in transfected cells; host or cells: HTLA cells

320 non-olfactory GPCRs [4] = target: T3, 320 non-olfactory GPCRs (Homo sapiens, UniProt Q8TDV5)
T3 construct: expressed in transfected cells; host or cells: HTLA cells
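Throughout, for Fold of Basal: compound tested at 1 µM final concentration.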
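Throughout, for GPCRome agonism screen response: fold over basal response of each receptor without drug.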

T3 sequence (Q8TDV5 whole entry): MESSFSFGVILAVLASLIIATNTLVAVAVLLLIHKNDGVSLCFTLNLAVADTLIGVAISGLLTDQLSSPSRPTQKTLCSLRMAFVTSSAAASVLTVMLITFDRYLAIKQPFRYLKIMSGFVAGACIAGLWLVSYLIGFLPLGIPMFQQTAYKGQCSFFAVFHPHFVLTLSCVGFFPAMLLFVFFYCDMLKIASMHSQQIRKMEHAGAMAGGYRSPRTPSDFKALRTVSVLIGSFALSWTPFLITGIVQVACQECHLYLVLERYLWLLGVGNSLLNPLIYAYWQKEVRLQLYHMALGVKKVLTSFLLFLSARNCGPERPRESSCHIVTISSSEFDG
T2 sequence (P50391 whole entry): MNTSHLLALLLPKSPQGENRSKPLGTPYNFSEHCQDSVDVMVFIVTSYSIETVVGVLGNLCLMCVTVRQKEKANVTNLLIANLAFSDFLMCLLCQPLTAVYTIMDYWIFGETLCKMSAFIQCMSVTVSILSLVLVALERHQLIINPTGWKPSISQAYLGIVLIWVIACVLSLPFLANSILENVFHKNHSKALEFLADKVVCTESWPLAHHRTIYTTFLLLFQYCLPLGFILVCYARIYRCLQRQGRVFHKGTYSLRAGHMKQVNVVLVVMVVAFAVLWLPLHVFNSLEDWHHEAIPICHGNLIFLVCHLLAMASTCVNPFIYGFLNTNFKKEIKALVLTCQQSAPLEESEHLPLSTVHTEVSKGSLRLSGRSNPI
Sequence of 320 non-olfactory GPCRs (Homo sapiens, UniProt P41145) (P41145 whole entry): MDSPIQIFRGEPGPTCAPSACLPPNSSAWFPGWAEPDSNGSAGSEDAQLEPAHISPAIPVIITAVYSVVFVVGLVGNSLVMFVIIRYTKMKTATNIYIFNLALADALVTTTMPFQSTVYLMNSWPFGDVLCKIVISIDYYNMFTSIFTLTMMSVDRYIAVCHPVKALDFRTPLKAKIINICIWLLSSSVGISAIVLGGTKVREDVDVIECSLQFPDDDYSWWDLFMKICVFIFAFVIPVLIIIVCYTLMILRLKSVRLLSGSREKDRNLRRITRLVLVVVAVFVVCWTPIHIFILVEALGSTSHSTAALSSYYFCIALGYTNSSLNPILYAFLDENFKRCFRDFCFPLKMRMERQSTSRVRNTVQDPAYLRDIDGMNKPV
T1 sequence (P32245 whole entry): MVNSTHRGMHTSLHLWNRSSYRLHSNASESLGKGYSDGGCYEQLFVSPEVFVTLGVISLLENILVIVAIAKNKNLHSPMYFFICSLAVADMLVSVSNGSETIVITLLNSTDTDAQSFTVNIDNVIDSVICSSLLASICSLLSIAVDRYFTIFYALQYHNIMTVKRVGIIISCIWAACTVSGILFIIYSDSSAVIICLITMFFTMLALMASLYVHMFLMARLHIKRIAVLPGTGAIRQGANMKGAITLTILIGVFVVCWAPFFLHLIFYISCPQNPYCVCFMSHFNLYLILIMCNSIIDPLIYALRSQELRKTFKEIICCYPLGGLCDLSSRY

For `CCOc1cccc2cc(C(C)NCC3(O)CCCCC3)oc12` (stereo not shown) [O4LE6], the “GPCRome agonism screen response” value (320 non-olfactory GPCRs [1]) was 0.7124 and 0.7559 and 1.4135 and 1.293, the “GPCRome agonism screen response” value (320 non-olfactory GPCRs [2]) was 0.2798 and 2.137 and 1.223 and 1.286 and the “GPCRome agonism screen response” value (320 non-olfactory GPCRs [3]) was 0.9177 and 0.7118 and 1.258 and 0.6362. For the same molecule, the “Fold of Basal” value (320 non-olfactory GPCRs [4]) was 0.5971 and 0.6704 and 0.4797 and 0.8296.
